PubChem BioAssay (NCI)
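Tested at 5 concentrations; 48 h exposure; 96-well plates; endpoints linearly interpolated, else capped at highest concentration. TGI: total growth inhibition.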

Key:
Assay in all cases: NCI anticancer screen, dose series, 48 h
HOP-62 NSCLC = test system: HOP-62 NSCLC
KM12 colon = test system: KM12 colon
A549 NSCLC = test system: A549 NSCLC
K-562 leukemia = test system: K-562 leukemia
MDA-MB-231 breast = test system: MDA-MB-231 breast
OVCAR-8 ovarian = test system: OVCAR-8 ovarian
SW-620 colon = test system: SW-620 colon
OVCAR-4 ovarian = test system: OVCAR-4 ovarian

Row | SMILES | TGI (HOP-62 NSCLC) | TGI (KM12 colon) | TGI (A549 NSCLC) | TGI (K-562 leukemia) | TGI (MDA-MB-231 breast) | TGI (OVCAR-8 ovarian) | TGI (SW-620 colon) | TGI (OVCAR-4 ovarian)
1 | CCOC(=O)c1csc(NC(=O)CCN2CCN(C)CC2)n1 | > 100 µM | > 100 µM | > 100 µM | > 100 µM | > 100 µM | > 100 µM | > 100 µM | > 100 µM
2 | CC/C=N\N1C(N)=C(C#N)C(C#N)(C#N)C1CC (stereo not drawn) | > 100 µM | > 100 µM | > 100 µM | > 100 µM | > 100 µM | > 100 µM | > 100 µM | > 100 µM
3 | CCOC(=O)/C=C/CCC(C)(C)COC(C)=O | > 10 µM | > 10 µM | > 10 µM | > 10 µM | > 10 µM | > 10 µM | > 10 µM | > 10 µM
4 | CCOC(=O)c1csc(NC(=O)CCN2CCCC2)n1 | > 100 µM | > 100 µM | > 100 µM | > 100 µM | > 100 µM | > 100 µM | > 100 µM | > 100 µM
5 | NC(=O)c1ccc[n+](C2=C([O-])c3ccccc3C(=O)/C2=N\S(=O)(=O)c2ccccc2)c1 | 33 µM | 26.7 µM | 37.7 µM | > 100 µM | 34.5 µM | 28.4 µM | 30.7 µM | 18.9 µM
6 | CSc1nc(=O)c2nc(-c3cccs3)c(-c3cccs3)nc2n1C | 47.2 µM | > 100 µM | > 100 µM | > 100 µM | > 100 µM | > 100 µM | > 100 µM | > 100 µM
7 | CC1=NN2C(=N)/C(=C/c3ccc(F)cc3)C(=O)N=C2S1 | > 100 µM | > 100 µM | > 100 µM | > 100 µM | > 100 µM | > 100 µM | > 100 µM | > 100 µM
8 | CCOC(=O)N1CCN(c2c(N)nc(C)[nH]c2=O)CC1 | > 100 µM | > 100 µM | > 100 µM | > 100 µM | > 100 µM | > 100 µM | > 100 µM | > 100 µM
9 | CNC(=S)N1CCN(C(C)=O)C1=S | > 100 µM | > 100 µM | > 100 µM | > 100 µM | 16 µM | > 100 µM | > 100 µM | 32.1 µM
10 | C=C(C)[C@H]1CC23C(=O)[C@@](C)(C[C@H]2C1(C)C)C(=O)C(C(=O)C(C)C)=C3O | 40.4 µM | 41.1 µM | 57.9 µM | 49.3 µM | 32.2 µM | 40.2 µM | 34.5 µM | 34.9 µM
11 | CCC1([N+](=O)[O-])CN(N=O)C1 | > 100 µM | > 100 µM | > 100 µM | > 100 µM | > 100 µM | > 100 µM | > 100 µM | > 100 µM
12 | O=C(Nc1nn(C(=O)c2cccnc2)c(=O)s1)c1ccc(Cl)cc1 | > 100 µM | > 100 µM | > 100 µM | > 100 µM | > 100 µM | > 100 µM | > 100 µM | > 100 µM
13 | N#CCCN(CCC#N)c1ccc(C(N=Nc2ccccc2)=Nc2ccc(F)cc2)cc1 | > 100 µM | > 100 µM | > 100 µM | > 100 µM | > 100 µM | > 100 µM | > 100 µM | > 100 µM
14 | CC(C)=C/C(CC(O)(C(F)(F)F)C(F)(F)F)=N\O | > 100 µM | > 100 µM | > 100 µM | > 100 µM | > 100 µM | > 100 µM | > 100 µM | > 100 µM
15 | COc1cc2c(cc1OCc1ccccc1)NC(=O)[C@@H]1CCCN1C2=O | > 100 µM | > 100 µM | > 100 µM | > 100 µM | > 100 µM | > 100 µM | > 100 µM | > 100 µM
16 | CC1=C(C)SC(=C2Sc3c(n(C)c(=O)n(C)c3=O)S2)S1 | 41.3 µM | > 100 µM | > 100 µM | > 100 µM | 75.3 µM | 64.5 µM | > 100 µM | 58.3 µM
17 | COc1ccc(C(=O)/C=C/SC(=NC#N)SC)cc1 | 44.1 µM | 63.9 µM | > 100 µM | > 100 µM | 33.2 µM | 46.8 µM | 48.3 µM | > 100 µM
18 | CSc1nc(Cl)c2c(n1)Sc1nc3ccccc3n1C2O (stereo not drawn) | > 79 µM | > 21.2 µM | > 96.4 µM | > 100 µM | > 100 µM | > 29.5 µM | 25.7 µM | > 100 µM
19 | OC(CC(O)(C(F)(F)Cl)C(F)(F)Cl)c1ccccc1 (stereo not drawn) | > 10 µM | > 10 µM | > 10 µM | > 10 µM | > 10 µM | > 10 µM | > 10 µM | > 10 µM
20 | CN(C)/N=N/c1nc2c(c(=O)n(C)c(=O)n2C)n1CC1CO1 (stereo not drawn) | 34.4 µM | 50.7 µM | 69.4 µM | 60.2 µM | 68.1 µM | 36.7 µM | 36.8 µM | 29.4 µM
21 | CCOC(=O)C(NC(=O)c1cccc(Cl)c1)(Nc1cccc(C)c1)C(F)(F)F (stereo not drawn) | 36.2 µM | 30.1 µM | > 100 µM | > 100 µM | 41.6 µM | 61 µM | 37.2 µM | 62.8 µM
